Measurements from patent publication US20240294551A1 (AMGEN INC., priority 2022, published 2024).
Where two headings read alike, the source gives them in different places.

How the values were obtained:
[1] = test system: Phosphorylation of ERK1/2 in AsPC-1 cells; experiment: Phospho-ERK1/2 MSD Assay; type: cell-based, human; details: read-out: 2 h p-ERK (AsPC-1 cells), IC50
How it was run: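 Read-out: MSD electrochemiluminescent detection of phosphorylated ERK1/2 in whole-cell lysates, fitted to a 4-parameter logistic curve for IC50. Prior to lysis, AsPC-1 cells (25,000 per well) received a 2 h compound dose-response at 37 °C.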

[2] = biological target: GDP-bound KRAS protein (aa 1-169), containing both G12D and C118A amino acid substitutions (Homo sapiens (Human), UniProt P01116, C118A/G12D); experiment: KRAS G12D Coupled Nucleotide Exchange Assay; type: biochemical; details: read-out: KRAS G12D Coupled Exchange IC50
[3] = biological target: His-tagged KRAS G12D protein (Homo sapiens (Human), UniProt P01116, G12D); experiment: KRAS G12D TR-FRET Assay; type: binding; details: read-out: KRAS G12D Binding IC50
How it was run: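 Each incubation ran at room temperature: enzyme with compound for 30 minutes, peptide for one hour, and detection reagents (0.4 nM europium anti-6×His, 5 nM streptavidin-d2) for one hour more. Protein and peptide stocks were each diluted to 20 nM before addition.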

AsPC-1 cells = experiment: AsPC-1 CTG Assay (CellTiter-Glo cell viability); type: cell-based, human; details: AsPC-1, 72 h, first value of the cell, read-out: G12D/C/V Cell Proliferation CTG (72 h) AsPC-1
Protocol: AsPC-1 and SW620 CTG Assay Protocols
AsPC-1 (human pancreatic adenocarcinoma; ATCC CRL-1682) or SW620 (human colon adenocarcinoma; ATCC CCL-227) cells were cultured in RPMI 1640 medium containing 10% fetal bovine serum and 1× penicillin/streptomycin/L-glutamine. Cells were seeded in 384-well plates at a density of 3.33E+04 cells/mL and incubated at 37° C., 5% CO2, overnight. Serially-diluted compound or DMSO was added to the cells, and plates were incubated at 37° C., 5% CO2 for 72 h. Cell viability was measured using a CellTiter-Glo® Luminescent Cell Viability Assay kit (Promega) according to the manufacturer's protocol. The luminescence signal of treated samples was normalized to DMSO control, and data were analyzed using a 4-parameter logistic model to calculate IC50 values.

Sequence of GDP-bound KRAS protein (aa 1-169), containing both G12D and C118A amino acid substitutions (P01116 other isoform, or with tags, fused parts or gaps G12D/C118A): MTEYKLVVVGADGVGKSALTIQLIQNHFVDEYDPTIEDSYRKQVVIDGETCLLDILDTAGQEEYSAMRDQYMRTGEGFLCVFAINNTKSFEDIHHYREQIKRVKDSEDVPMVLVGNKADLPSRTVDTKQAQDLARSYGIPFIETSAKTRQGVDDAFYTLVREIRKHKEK
Sequence of His-tagged KRAS G12D protein (P01116 other isoform, or with tags, fused parts or gaps G12D): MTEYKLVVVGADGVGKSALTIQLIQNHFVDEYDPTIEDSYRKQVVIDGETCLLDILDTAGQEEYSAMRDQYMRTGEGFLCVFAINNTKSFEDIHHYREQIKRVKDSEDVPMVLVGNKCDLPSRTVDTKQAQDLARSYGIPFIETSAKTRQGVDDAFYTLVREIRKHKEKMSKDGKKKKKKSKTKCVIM

IC50 ([1]; Homo sapiens, ASPC1, 2 h)	IC50 [2]	IC50 [3]	IC50 (AsPC-1 cells; Homo sapiens, ASPC1, 72 h)	IC50 ([1]; 2 h)	IC50 (AsPC-1 cells)	Compound
135 nM	3 nM	6 nM	1640 nM			Cc1cc2[nH]ncc2c2c1CCCCC(=O)N[C@@H]1CCCCN(C1)c1nc(OC[C@@]34CCCN3C[C@H](F)C4)nc3c(F)c-2ncc13 [Example 54, (26R)-32-fluoro-4-(((2R,7aS)-2-fluorotetrahydro-1H-pyrrolo[1,2-a]pyrrol-7a(5H)-yl)methoxy)-18-methyl-1,3,5,9,14,15,25-heptaazahexacyclo[24.4.1.1~6,10~.0~2,7~.0~11,19~.0~12,16~]dotriaconta-2,4,6,8,10(32),11,13,16,18-nonaen-24-one]
180 nM	5 nM	14 nM	1250 nM			Cc1cc2[nH]ncc2c2c1CCCOC(=O)O[C@H]1CN(CC[C@H]1F)c1nc(OC[C@@]34CCCN3C[C@H](F)C4)nc3c(F)c-2ncc13 (racemic) [Example 93]
8 nM	1 nM	3 nM	111 nM			O=C1CCCCc2c(Cl)cc3[nH]ncc3c2-c2ncc3c(nc(OC[C@@]45CCCN4C[C@H](F)C5)nc3c2F)N2CCC[C@H](C2)O1 [Example 36, (17R)-9-Chloro-30-fluoro-24-(((2R,7aS)-2-fluorotetrahydro-1H-pyrrolo[1,2-a]pyrrol-7a(5H)-yl)methoxy)-16-oxa-5,6,21,23,25,29-hexaazahexacyclo[24.3.1.1˜17,21˜.0˜2,10˜.0˜3,7˜.0˜22,27˜]hentriaconta-1(30),2,4,7,9,22,24,26,28-nonaen-15-one bis(2,2,2-trifluoroacetate)]
248 nM	46 nM	68 nM	1260 nM			CN1C(=O)CC[C@@H]2C[C@@H]2c2c(Cl)cc3[nH]ncc3c2-c2ncc3c(nc(OC[C@@]45CCCN4C[C@H](F)C5)nc3c2F)N2CCC[C@@H]1C2 [Example 128, (11S,13R,18R)-9-Chloro-31-fluoro-25-(((2R,7aS)-2-fluorotetrahydro-1H-pyrrolo[1,2-a]pyrrol-7a(5H)-yl)methoxy)-17-methyl-5,6,17,22,24,26,30-heptaazaheptacyclo[25.3.1.1˜18,22˜.0˜2,10˜.0˜3,7˜.0˜11,13˜.0˜23,28˜]dotriaconta-1(31),2,4,7,9,23,25,27,29-nonaen-16-one bis (2,2,2-trifluoroacetate)]
9.4 nM	5 nM	4 nM	229 nM			O=C1N[C@@H]2CCCCN(C2)c2nc(OC[C@@]34CCCN3C[C@H](F)C4)nc3c(F)c(ncc23)-c2c(c(Cl)cc3[nH]ncc23)CCCO1 [Example 256, (26R)-18-chloro-32-fluoro-4-(((2R,7aS)-2-fluorotetrahydro-1H-pyrrolo[1,2-a]pyrrol-7a(5H)-yl)methoxy)-23-oxa-1,3,5,9,14,15,25-heptaazahexacyclo[24.4.1.1~6, 10~.0~2,7~.0~11,19~.0~12,16~]dotriaconta-2,4,6(32),7,9,11,13,16,18-nonaen-24-one]
99 nM	3 nM	10 nM	475 nM			Cc1cc2[nH]ncc2c2c1CCCCC(=O)N[C@]1(C)CCCCN(C1)c1nc(OC[C@@]34CCCN3C[C@H](F)C4)nc3c(F)c-2ncc13 [Example 280, (26R)-32-fluoro-4-(((2R,7aS)-2-fluorotetrahydro-1H-pyrrolo[1,2-a]pyrrol-7a(5H)-yl)methoxy)-18,26-dimethyl-1,3,5,9,14,15,25-heptaazahexacyclo[24.4.1.1~6,10~.0~2,7~.0~11,19~.0~12,16~]dotriaconta-2,4,6,8,10(32),11,13,16,18-nonaen-24-one]
246 nM	4 nM	7 nM	1350 nM			CN(C)CC1(COc2nc3c4cnc(c(F)c4n2)-c2c(c(Cl)cc4[nH]ncc24)CCCCC(=O)N2CC[C@@H]4CCN3C[C@@H]42)CC1 [Example 268, (28S,32R)-18-chloro-4-((1-((dimethylamino)methyl)cyclopropyl)methoxy)-33-fluoro-1,3,5,9,14,15,25-heptaazaheptacyclo[23.5.2.1~6,10~.0~2,7~.0~11,19~.0~12,16~.0~28,32~]tritriaconta-2,4,6,8,10(33),11,13,16,18-nonaen-24-one]
82.9 nM	6 nM	13 nM	996 nM			Fc1c2ncc3c(nc(OC[C@@]45CCCN4C[C@H](F)C5)nc13)N1CCOCC(C1)Cn1ncc(n1)/C=C\c1c(Cl)cc3[nH]ncc3c1-2 (stereo partly drawn) [Example 258, (20Z)-18-chloro-34-fluoro-4-(((2R,7aS)-2-fluorotetrahydro-1H-pyrrolo[1,2-a]pyrrol-7a(5H)-yl)methoxy)-29-oxa-1,3,5,9,14,15,24,25,33-nonaazaheptacyclo[25.4.1.1~6,10~.1~22,25~.0~2,7~.0~11,19~.0~12,16~]tetratriaconta-2,4,6,8,10(34),11,13,16,18,20,22(33),23-dodecaene]
26.7 nM	3 nM	6 nM	134 nM			CO[C@@H]1C[C@@H](COc2nc3c4cnc(c(F)c4n2)-c2c(c(Cl)cc4[nH]ncc24)CCCOC(=O)O[C@]2(C)COCCN3C2)N(C)C1 [Example 319, (26S)-18-chloro-32-fluoro-4-(((2S,4R)-4-methoxy-1-methyl-2-pyrrolidinyl)methoxy)-26-methyl-23,25,28-trioxa-1,3,5,9,14,15-hexaazahexacyclo[24.4.1.1~6,10~.0~2,7~.0~11,19~.0~12,16~]dotriaconta-2,4,6,8,10(32),11,13,16,18-nonaen-24-one]
298 nM	4 nM	13 nM	2220 nM			C[C@@H]1CN(c2nc3c4cnc(c(F)c4n2)-c2c(c(Cl)cc4[nH]ncc24)CCCOC(=O)O[C@@H]2COCCN3C2)CCN1 [Example 348, (26S)-18-chloro-32-fluoro-4-((3R)-3-methyl-1-piperazinyl)-23,25,28-trioxa-1,3,5,9,14,15-hexaazahexacyclo[24.4.1.1~6,10~.0~2,7~.0~11,19~.0~12,16~]dotriaconta-2,4,6,8,10(32),11,13,16,18-nonaen-24-one]
32 nM	2 nM	5 nM	230 nM			Cc1cc2[nH]ncc2c2c1C/C=C/COC[C@@H]1CCCN(C1)c1nc(OC[C@@]34CCCN3C[C@H](F)C4)nc3c(F)c-2ncc13 [Example 130]
	21 nM	30 nM		467 nM	5000 nM	O[C@@H]1C[C@@H]2CN(C1)c1nc(OC[C@@]34CCCN3C[C@H](F)C4)nc3c(F)c(ncc13)-c1c(c(Cl)cc3[nH]ncc13)CCCn1ncc2n1 (single isomer, unassigned) [Example 299]
110 nM	6 nM	10 nM	613 nM			O=C1N[C@H]2C[C@@]3(CCCN(C3)c3nc(OC[C@@]45CCCN4C[C@H](F)C5)nc4c(F)c(ncc34)-c3c(c(Cl)cc4[nH]ncc34)CCO1)C2 [Example 289, 10-chloro-32-fluoro-24-(((2R,7aS)-2-fluorotetrahydro-1H-pyrrolo[1,2-a]pyrrol-7a(5H)-yl)methoxy)-6-oxa-4,13,14,19,23,25,27-heptaazaheptacyclo[25.3.1.1~1,3~.1~18,22~.0~9,17~.0~12,16~.0~21,26~]tritriaconta-9,11,14,16,18(32),19,21,23,25-nonaen-5-one]
250 nM	11 nM	16 nM	606 nM			O=C1CCCCc2c(Cl)cc3[nH]ncc3c2-c2ncc3c(nc(OC[C@@]45CCCN4C[C@H](F)C5)nc3c2F)N2CC3CCN1C(C3)C2 (some centres unmarked) [Example 269]
